SMILES strings stand for the structures. pEC50: −log10 of the molar value. Where two headings read alike, the source gives them in different places. Starred links: 1 amine or outer side, 2 acyl side, 3 side chain; linkers in the order of their positions; H or OH if unused. Non-standard residues stand in square brackets, D forms with d. Residues, ends and D or L forms follow the SMILES beside them. Groups on a side chain read outwards from the residue. ξ: configuration not given here. *: point of attachment. C20 diacid = O=C(O)CCCCCCCCCCCCCCCCCCC(=O)*; γGlu = O=C(O)[C@H](CCC(=O)[*:2])N[*:1]; αMeL = CC(C)C[C@](C)(N)C(=O)O; αMeK = C[C@](N)(CCCCN)C(=O)O; ξαMeL = CC(C)CC(C)(N)C(=O)O; AEEA = NCCOCCOCC(=O)O; Aib = CC(C)(N)C(=O)O

One series concerns the target T1, human GLP-1R (Homo sapiens, UniProt P43220).
T1 construct: expressed in transfected cells; host or cells: CHO-K1 clonal cell line
Briefly: cAMP HTRF agonist activity assay in CHO-K1 cells expressing GLP-1R. On Activity against human GLP-1R (EC50 nM): 5% FBS, 0.1% Casein. Format: cell-based. As to the method:
(§1) Functional activity was determined in CHO-K1 clonal cell lines expressing GIPR, GLP-1R, and GCGR. […] Each recipient cell (5000 cells/well) was added to an SV 96-well plate (Cisbio, 66PL96025) and incubated with the prepared polypeptide at 37°Cfor 30 min. The resulting increase in intracellular cAMP was quantitatively measured using the cAMP-GS dynamic HTRF assay kit (Cisbio, 62AM4PEJ). Briefly, the intracellular cAMP levels were determined by adding cAMP-d2 conjugate in cell lysis buffer, followed by the antibody anti-cAMP-Eu cryptate (also in cell lysis buffer).
(§2) Using the maximum response percentage vs. the added polypeptide concentration, the relative EC50 values were derived through nonlinear regression analysis and fitted to a four-parameter logarithmic equation. For specific data, refer to Tables 7-1 to 7-8 below. […]
For orientation: In TR-FRET formats the signal depends on donor and acceptor labels being close together.

The target of another series is T2, human GIPR (Homo sapiens, UniProt P48546).
T2 construct: expressed in transfected cells; host or cells: CHO-K1 clonal cell line
T2 sequence (P48546 22-466): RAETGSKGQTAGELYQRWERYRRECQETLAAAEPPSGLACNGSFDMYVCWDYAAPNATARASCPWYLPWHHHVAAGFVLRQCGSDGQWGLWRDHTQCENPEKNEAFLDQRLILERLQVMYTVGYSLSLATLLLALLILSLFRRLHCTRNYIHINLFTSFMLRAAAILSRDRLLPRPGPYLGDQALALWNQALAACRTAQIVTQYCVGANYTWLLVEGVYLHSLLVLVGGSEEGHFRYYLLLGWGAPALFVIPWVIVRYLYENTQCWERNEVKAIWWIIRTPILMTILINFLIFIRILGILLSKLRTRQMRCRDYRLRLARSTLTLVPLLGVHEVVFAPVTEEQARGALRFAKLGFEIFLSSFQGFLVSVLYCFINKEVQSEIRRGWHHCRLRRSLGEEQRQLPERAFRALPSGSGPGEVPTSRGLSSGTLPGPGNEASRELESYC
Briefly: cAMP HTRF agonist activity assay in CHO-K1 cells expressing GIPR. Further: 5% FBS, 0.1% Casein. Format: cell-based. To be noted: read-out: Activity against human GIPR (EC50 nM). As to the method: as §1, §2

Series [1] is described as follows: Pharmacokinetics in mice after single intravenous injection. On the set-up: species or system C57 mice. The conditions noted are these: male, C57, mouse, in vivo, iv. The protocol:
Male C57 mice were used as test animals. The target compound was administered via a single intravenous injection, and the pharmacokinetic characteristics of the compound in C57 mice in vivo (plasma) were determined.
Male C57 mice, weighing approximately 25g, aged 4-6 weeks. After preparing the polypeptide compound solution using 1×PBS dissolving solution, the compound was administered intravenously at a dose of 200 nmol/kg, where each compound was administered to 3 animals. Blood samples of 60 µL were collected at 5 min, 15 min, 0.5 h, 1 h, 2 h, 4 h, 6 h, 24 h, 48 h and 72 h after the infusion was completed and transferred to centrifuge tubes containing EDTA-K2 anticoagulant. Whole blood samples were centrifuged at 4000 g for 5 min at 4°C. Plasma was separated and plasma samples were frozen and stored at -80 °C.
Sample pretreatment method: 30 µL of plasma samples was taken, and 120 µL of 0.1% formic acid in methanol containing 1 ng/mL internal standard verapamil was added. The mixture was vortexed for 5 min, and centrifuged at 10000 rpm for 10 min at low temperature. 70 µL of supernatant was taken, and 70 µL of water was added and mixed well. Analysis was performed by LC-MS instrument.
LC-MS analysis method: (1) chromatographic conditions: mobile phases A and B: 0.1% formic acid in water and 0.1% formic acid in acetonitrile, respectively; gradient elution mode; flow rate: 0.5 mL/min; injection volume: 10 µL; chromatographic column: nanomicro Unisil C18aq (4.6 mm × 150 mm, 5 µm); column temperature: 40°C. (2) Mass spectrometry conditions: For mass spectrometry, an electrospray ionization source (ESI), positive ion analysis mode, and multiple reaction monitoring (MRM) scanning mode were used.
For data processing, SCIEX OS (Version 2.1.6) software was used to quantify blood drug concentration data and PKSolver (Version 2.0) software was used to calculate pharmacokinetic parameters.

T1 sequence (P43220 24-463): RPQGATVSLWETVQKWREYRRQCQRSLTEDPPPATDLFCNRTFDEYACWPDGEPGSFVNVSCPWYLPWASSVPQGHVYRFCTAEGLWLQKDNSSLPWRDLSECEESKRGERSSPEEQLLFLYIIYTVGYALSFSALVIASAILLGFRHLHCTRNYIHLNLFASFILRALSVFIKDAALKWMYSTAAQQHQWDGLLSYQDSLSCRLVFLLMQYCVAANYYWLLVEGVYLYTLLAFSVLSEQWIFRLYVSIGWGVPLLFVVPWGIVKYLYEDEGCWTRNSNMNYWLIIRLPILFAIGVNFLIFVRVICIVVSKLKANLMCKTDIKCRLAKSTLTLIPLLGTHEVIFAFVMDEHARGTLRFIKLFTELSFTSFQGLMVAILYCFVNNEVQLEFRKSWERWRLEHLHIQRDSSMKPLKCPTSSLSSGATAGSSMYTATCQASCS

In the case of `CC(C)C[C@H](NC(=O)[C@H](CC(C)C)NC(=O)[C@H](Cc1c[nH]c2ccccc12)NC(=O)[C@H](CCC(=O)O)NC(=O)[C@@H](NC(=O)[C@H](Cc1ccccc1)NC(=O)[C@H](CCC(=O)O)NC(=O)[C@H](CCC(N)=O)NC(=O)[C@H](C)NC(=O)C(C)(C)NC(=O)[C@H](CCCCN)NC(=O)[C@H](CCCCNC(=O)COCCOCCNC(=O)COCCOCCNC(=O)CC[C@H](NC(=O)CCCCCCCCCCCCCCCCCCC(=O)O)C(=O)O)NC(=O)[C@H](CCC(=O)O)NC(=O)[C@H](CC(C)C)NC(=O)[C@H](Cc1ccc(O)cc1)NC(=O)[C@H](CCCCN)NC(=O)[C@H](CO)NC(=O)[C@H](Cc1ccc(O)cc1)NC(=O)[C@H](CC(=O)O)NC(=O)[C@H](CO)NC(=O)[C@@H](NC(=O)[C@H](Cc1ccccc1)NC(=O)[C@@H](NC(=O)CNC(=O)[C@H](Cc1c[nH]cn1)NC(=O)C(C)(C)NC(=O)[C@@H](N)Cc1c[nH]cn1)[C@@H](C)O)[C@@H](C)O)C(C)C)C(=O)N[C@@H](C)C(=O)NCC(=O)NCC(=O)N1CCC[C@H]1C(=O)N[C@@H](CO)C(=O)N[C@@H](CO)C(=O)NCC(=O)N[C@@H](C)C(=O)N1CCC[C@H]1C(=O)N1CCC[C@H]1C(=O)N1CCC[C@H]1C(=O)N[C@@H](CO)C(N)=O` [Compound 0110] (H-H[Aib]HGTFTSDYSKYLEK([AEEA-AEEA-γGlu-C20 diacid])K[Aib]AQEFVEWLLAGGPSSGAPPPS-NH2), the EC50 (commonly the concentration needed to bring the measured effect to its halfway point) on human GLP-1R (read-out: Activity against human GLP-1R (EC50 nM)) turned out to be 0.016 nM.

With `CC[C@H](C)[C@H](NC(=O)[C@H](CC(C)C)NC(=O)[C@H](Cc1c[nH]c2ccccc12)NC(=O)[C@H](CCC(=O)O)NC(=O)[C@@H](NC(=O)[C@H](Cc1ccccc1)NC(=O)[C@H](CCC(=O)O)NC(=O)[C@H](CCC(N)=O)NC(=O)[C@H](C)NC(=O)[C@H](C)NC(=O)[C@H](CCCCN)NC(=O)[C@H](CCCCNC(=O)COCCOCCNC(=O)COCCOCCNC(=O)CC[C@H](NC(=O)CCCCCCCCCCCCCCCCCCC(=O)O)C(=O)O)NC(=O)[C@H](CCC(=O)O)NC(=O)[C@H](CC(C)C)NC(=O)[C@H](Cc1ccc(O)cc1)NC(=O)[C@](C)(CCCCN)NC(=O)[C@H](CO)NC(=O)[C@H](Cc1ccc(O)cc1)NC(=O)[C@H](CC(=O)O)NC(=O)[C@H](CO)NC(=O)[C@@H](NC(=O)[C@H](Cc1ccccc1)NC(=O)[C@@H](NC(=O)CNC(=O)[C@H](Cc1c[nH]cn1)NC(=O)C(C)(C)NC(=O)[C@@H](N)Cc1c[nH]cn1)[C@@H](C)O)[C@@H](C)O)C(C)C)C(=O)N[C@@H](CCC(=O)O)C(=O)NCC(=O)NCC(=O)N1CCC[C@H]1C(=O)N[C@@H](CO)C(=O)N[C@@H](CO)C(=O)NCC(=O)N[C@@H](C)C(=O)N1CCC[C@H]1C(=O)N1CCC[C@H]1C(=O)N1CCC[C@H]1C(=O)N[C@@H](CO)C(N)=O` [Compound 0115] (H-H[Aib]HGTFTSDYS[αMeK]YLEK([AEEA-AEEA-γGlu-C20 diacid])KAAQEFVEWLIEGGPSSGAPPPS-NH2), the pEC50 – broadly, −log10 of the EC50, conventionally taken in molar units – on human GLP-1R is 10.64.

For the compound `CC[C@H](C)[C@H](NC(=O)[C@H](CO)NC(=O)[C@H](CC(C)C)NC(=O)[C@H](CC(=O)O)NC(=O)[C@H](CO)NC(=O)[C@@H](NC(=O)[C@H](Cc1ccccc1)NC(=O)[C@@H](NC(=O)CNC(=O)[C@H](Cc1c[nH]cn1)NC(=O)C(C)(C)NC(=O)[C@@H](N)Cc1c[nH]cn1)[C@@H](C)O)[C@@H](C)O)C(=O)N[C@@](C)(CC(C)C)C(=O)N[C@@H](CC(C)C)C(=O)N[C@@H](CCC(=O)O)C(=O)N[C@@H](CCCCNC(=O)COCCOCCNC(=O)COCCOCCNC(=O)CC[C@H](NC(=O)CCCCCCCCCCCCCCCCCCC(=O)O)C(=O)O)C(=O)N[C@@H](CCCCN)C(=O)N[C@@H](C)C(=O)N[C@@H](C)C(=O)N[C@@H](CCC(N)=O)C(=O)N[C@@H](CCC(=O)O)C(=O)N[C@@H](Cc1ccccc1)C(=O)N[C@H](C(=O)N[C@@H](CCC(=O)O)C(=O)N[C@@H](Cc1c[nH]c2ccccc12)C(=O)N[C@@H](CC(C)C)C(=O)N[C@@H](CC(C)C)C(=O)N[C@@H](C)C(=O)N[C@H](CCC(=O)O)C(=O)NCC(=O)N1CCC[C@H]1C(=O)N[C@@H](CO)C(=O)N[C@@H](CO)C(=O)NCC(=O)N[C@@H](C)C(=O)N1CCC[C@H]1C(=O)N1CCC[C@H]1C(=O)N1CCC[C@H]1C(=O)N[C@@H](CO)C(N)=O)C(C)C` [Compound 0142] (H-H[Aib]HGTFTSDLSI[αMeL]LEK([AEEA-AEEA-γGlu-C20 diacid])KAAQEFVEWLLA[dE]GPSSGAPPPS-NH2), the EC50 on human GIPR was 0.007 nM. Moreover, in series [1], the clearance – broadly, a measure of how efficiently the substance is removed, as volume per time – came to 5.52 mL/h/kg and the half-life (as a rule, the time in which the quantity being followed falls by half) is 10.5 h.

For `CC[C@H](C)[C@H](NC(=O)[C@H](CO)NC(=O)[C@H](CC(C)C)NC(=O)[C@H](CC(=O)O)NC(=O)[C@H](CO)NC(=O)[C@@H](NC(=O)[C@H](Cc1ccccc1)NC(=O)[C@@H](NC(=O)CNC(=O)[C@H](Cc1c[nH]cn1)NC(=O)C(C)(C)NC(=O)[C@@H](N)Cc1c[nH]cn1)[C@@H](C)O)[C@@H](C)O)C(=O)NC(C)(CC(C)C)C(=O)N[C@@H](CC(C)C)C(=O)N[C@@H](CCC(=O)O)C(=O)N[C@@H](CCCCNC(=O)COCCOCCNC(=O)COCCOCCNC(=O)CC[C@H](NC(=O)CCCCCCCCCCCCCCCCCCC(=O)O)C(=O)O)C(=O)N[C@@H](CCCCN)C(=O)N[C@@H](C)C(=O)N[C@@H](C)C(=O)N[C@@H](CCC(N)=O)C(=O)N[C@@H](CCC(=O)O)C(=O)N[C@@H](Cc1ccccc1)C(=O)N[C@H](C(=O)N[C@@H](CCC(=O)O)C(=O)N[C@@H](Cc1c[nH]c2ccccc12)C(=O)N[C@@H](CC(C)C)C(=O)N[C@@H](CC(C)C)C(=O)N[C@@H](C)C(=O)NCC(=O)NCC(=O)N1CCC[C@H]1C(=O)N[C@@H](CO)C(=O)N[C@@H](CO)C(=O)NCC(=O)N[C@@H](C)C(=O)N1CCC[C@H]1C(=O)N1CCC[C@H]1C(=O)N1CCC[C@H]1C(=O)N[C@@H](CO)C(N)=O)C(C)C` (some centres unmarked) [Compound 0143] (H-H[Aib]HGTFTSDLSI[ξαMeL]LEK([AEEA-AEEA-γGlu-C20 diacid])KAAQEFVEWLLAGGPSSGAPPPS-NH2), the EC50 at human GIPR turned out to be 0.004 nM. Besides, in series [1], the clearance worked out at 2.82 mL/h/kg and the half-life was 13.7 h.

On to `CC[C@H](C)[C@H](NC(=O)[C@H](CO)NC(=O)[C@H](Cc1ccc(O)cc1)NC(=O)[C@H](CC(=O)O)NC(=O)[C@H](CO)NC(=O)[C@@H](NC(=O)[C@H](Cc1ccccc1)NC(=O)[C@@H](NC(=O)CNC(=O)[C@H](Cc1c[nH]cn1)NC(=O)C(C)(C)NC(=O)[C@@H](N)Cc1c[nH]cn1)[C@@H](C)O)[C@@H](C)O)C(=O)N[C@@](C)(CC(C)C)C(=O)N[C@@H](CC(C)C)C(=O)N[C@@H](CCC(=O)O)C(=O)N[C@@H](CCCCNC(=O)COCCOCCNC(=O)COCCOCCNC(=O)CC[C@H](NC(=O)CCCCCCCCCCCCCCCCCCC(=O)O)C(=O)O)C(=O)N[C@@H](CCCCN)C(=O)N[C@@H](C)C(=O)N[C@@H](C)C(=O)N[C@@H](CCC(N)=O)C(=O)N[C@@H](CCC(=O)O)C(=O)N[C@@H](Cc1ccccc1)C(=O)N[C@H](C(=O)N[C@@H](CCC(=O)O)C(=O)N[C@@H](Cc1c[nH]c2ccccc12)C(=O)N[C@@H](CC(C)C)C(=O)N[C@@H](CC(C)C)C(=O)N[C@@H](C)C(=O)N[C@H](CCC(=O)O)C(=O)NCC(=O)N1CCC[C@H]1C(=O)N[C@@H](CO)C(=O)N[C@@H](CO)C(=O)NCC(=O)N[C@@H](C)C(=O)N1CCC[C@H]1C(=O)N1CCC[C@H]1C(=O)N1CCC[C@H]1C(=O)N[C@@H](CO)C(N)=O)C(C)C` [Compound 0139], for which the EC50 on human GIPR worked out at 0.007 nM. For the same compound, in series [1], the clearance is 4.86 mL/h/kg and the half-life was 11.9 h.

For the origin of these results see patent EP4745153A1, “GLP-1, GIP AND GCG RECEPTOR […] USE THEREOF” (Jiangsu Hengrui Pharmaceuticals Co., Ltd., priority 2023, dated 2025).
